{"source": "ChEMBL document CHEMBL4831516", "about": "“Development of Membrane-Active Honokiol/Magnolol Amphiphiles as Potent Antibacterial Agents against Methicillin-Resistant Staphylococcus aureus (MRSA)” (J Med Chem, 2021)", "key": {"[1]": {"tested_on": "Escherichia coli", "test": "Antibacterial activity against Escherichia coli ATCC25922 assessed as inhibition of visible growth incubated for 16 to 18 hrs by CLSI method", "format": "functional", "conditions": "time 16-18 hrs, read-out: MIC100"}, "[2]": {"tested_on": "Bacillus subtilis", "test": "Antibacterial activity against Bacillus subtilis assessed as inhibition of visible growth incubated for 16 to 18 hrs by CLSI method", "format": "functional", "conditions": "time 16-18 hrs, read-out: MIC100"}, "[3]": {"tested_on": "Staphylococcus aureus", "test": "Antibacterial activity against methicillin-resistant Staphylococcus aureus clinical isolate M-12 assessed as inhibition of visible growth incubated for 16 to 18 hrs by CLSI method", "format": "functional", "conditions": "time 16-18 hrs, read-out: MIC100"}, "[4]": {"test": "Toxicity in BALB/c mouse assessed as abnormalities and pathological changes in kidney at 25 mg/kg, sc once a day for 3 days by H and E staining based assay", "format": "organism-based", "conditions": "in vivo, 72 h, time 3 day"}, "[5]": {"tested_on": "Cell membrane", "test": "Induction of membrane disruption in methicillin-resistant Staphylococcus aureus clinical isolate 16 assessed as increase in red fluorescence at 10 ug/ml by PI staining based confocal laser scanning microscopy", "conditions": "dose 10.0 µg/ml"}, "[6]": {"tested_on": "Staphylococcus aureus", "test": "Antibacterial activity against methicillin-resistant Staphylococcus aureus clinical isolate 16 infected in BALB/c mouse assessed as reduction in inflammatory cell inflammation in liver at 25 mg/kg, sc once a day for 3 days by H and E staining based assay", "format": "functional, organism-based", "conditions": "time 3.0 day"}, "[7]": {"tested_on": "Staphylococcus aureus", "test": "Bactericidal activity against methicillin-resistant Staphylococcus aureus clinical isolate 16 assessed as reduction in colony formation in early stage at 8 times of MIC measured within 30 mins by time-kill assay", "format": "functional, organism-based"}, "[8]": {"tested_on": "Staphylococcus aureus", "test": "Bactericidal activity against methicillin-resistant Staphylococcus aureus clinical isolate 16 assessed as reduction in colony formation in late stage at 8 times of MIC measured within 2 hrs by time-kill assay", "format": "functional, organism-based"}, "[9]": {"tested_on": "Staphylococcus aureus", "test": "Antibacterial activity against […] assessed as fold increase in MIC at sublethal concentration treated over 20 serial passages by resistance development assay", "format": "functional"}, "[10]": {"tested_on": "Staphylococcus aureus", "test": "Antibacterial activity against methicillin-resistant Staphylococcus aureus clinical isolate M-20 assessed as inhibition of visible growth incubated for 16 to 18 hrs by CLSI method", "format": "functional", "conditions": "time 16-18 hrs, read-out: MIC100"}, "[11]": {"tested_on": "Staphylococcus aureus", "test": "Antibacterial activity against methicillin-resistant Staphylococcus aureus clinical isolate M-19 assessed as inhibition of visible growth incubated for 16 to 18 hrs by CLSI method", "format": "functional", "conditions": "time 16-18 hrs, read-out: MIC100"}, "[12]": {"tested_on": "Enterococcus faecalis", "test": "Antibacterial activity against Enterococcus faecalis ATCC29212 assessed as inhibition of visible growth incubated for 16 to 18 hrs by CLSI method", "format": "functional", "conditions": "time 16-18 hrs, read-out: MIC100"}, "[13]": {"tested_on": "Staphylococcus aureus", "test": "Antibacterial activity against methicillin-resistant Staphylococcus aureus clinical isolate M-16 assessed as inhibition of visible growth incubated for 16 to 18 hrs by CLSI method", "format": "functional", "conditions": "time 16-18 hrs, read-out: MIC100"}, "[14]": {"tested_on": "Cell membrane", "test": "Induction of membrane morphological changes in methicillin-resistant Staphylococcus aureus clinical isolate 16 assessed as visible cell surface wrinkles and disruption at 10 ug/ml by scanning electron microscopy", "format": "subcellular", "conditions": "dose 10.0 µg/ml"}, "[15]": {"tested_on": "Staphylococcus aureus", "test": "Antibacterial activity against methicillin-resistant Staphylococcus aureus clinical isolate M-13 assessed as inhibition of visible growth incubated for 16 to 18 hrs by CLSI method", "format": "functional", "conditions": "time 16-18 hrs, read-out: MIC100"}, "[16]": {"tested_on": "Cell membrane", "test": "Induction of cell membrane permeability in methicillin-resistant Staphylococcus aureus clinical isolate 16 assessed as fluorescent intensity by SYTOX dye based fluorescence assay", "format": "subcellular"}, "[17]": {"tested_on": "Staphylococcus aureus", "test": "Antibacterial activity against methicillin-resistant Staphylococcus aureus clinical isolate 16 infected in BALB/c mouse assessed as reduction in bacterial load in liver at 25 mg/kg, sc once a day for 3 days by H and E staining based assay", "format": "functional, organism-based", "conditions": "time 3.0 day"}, "[18]": {"test": "Hemolytic activity in sheep RBC assessed as hemolysis incubated for 1 hr", "format": "ADME, cell-based, Ovis aries, Erythrocyte", "conditions": "sheep red blood cells (erythrocytes)"}, "[19]": {"test": "Toxicity in BALB/c mouse assessed as abnormalities and pathological changes in liver at 25 mg/kg, sc once a day for 3 days by H and E staining based assay", "format": "organism-based", "conditions": "in vivo, 72 h, time 3 day"}, "[20]": {"tested_on": "Staphylococcus aureus", "test": "Antibacterial activity against Staphylococcus aureus ATCC29213 assessed as inhibition of visible growth incubated for 16 to 18 hrs by CLSI method", "format": "functional", "conditions": "time 16-18 hrs, read-out: MIC100"}, "[21]": {"tested_on": "Cell membrane", "test": "Induction of membrane disruption in methicillin-resistant Staphylococcus aureus clinical isolate 16 assessed as increase in blue fluorescence at 10 ug/ml by DAPI staining based confocal laser scanning microscopy", "conditions": "dose 10.0 µg/ml"}, "[22]": {"tested_on": "Staphylococcus aureus", "test": "Antibacterial activity against methicillin-resistant Staphylococcus aureus clinical isolate 16 infected in BALB/c mouse assessed as reduction in bacterial load in kidney at 25 mg/kg, sc once a day for 3 days by H and E staining based assay", "format": "functional, organism-based", "conditions": "time 3.0 day"}, "[23]": {"tested_on": "Micrococcus luteus", "test": "Antibacterial activity against Micrococcus luteus assessed as inhibition of visible growth incubated for 16 to 18 hrs by CLSI method", "format": "functional", "conditions": "time 16-18 hrs, read-out: MIC100"}, "[24]": {"tested_on": "Staphylococcus aureus", "test": "Antibiofilm activity against Staphylococcus aureus assessed as decrease in viable bacteria in biofilm at 2 to 64 ug/ml incubated for 16 to 18 hrs by biofilm disruption assay", "format": "functional, organism-based", "conditions": "dose 2-64 µg/ml, time 16-18 hrs"}, "[25]": {"tested_on": "Stenotrophomonas maltophilia", "test": "Antibacterial activity against Stenotrophomonas maltophilia assessed as inhibition of visible growth incubated for 16 to 18 hrs by CLSI method", "format": "functional", "conditions": "time 16-18 hrs, read-out: MIC100"}, "[26]": {"tested_on": "L02", "test": "Cytotoxicity against human L02 cells assessed as cell viability at 128 ug/ml incubated for 24 hrs by CCK8 assay", "format": "cell-based", "conditions": "l02, 24 h, dose 128 µg/ml"}, "[27]": {"test": "Toxicity in BALB/c mouse assessed as abnormalities and pathological changes in spleen at 25 mg/kg, sc once a day for 3 days by H and E staining based assay", "format": "organism-based", "conditions": "in vivo, 72 h, time 3 day"}, "[28]": {"tested_on": "Staphylococcus aureus", "test": "Antibacterial activity against methicillin-resistant Staphylococcus aureus clinical isolate 16 infected in BALB/c mouse assessed as reduction in bacterial load in spleen at 25 mg/kg, sc once a day for 3 days by H and E staining based assay", "format": "functional, organism-based", "conditions": "time 3.0 day"}, "[29]": {"tested_on": "Staphylococcus aureus", "test": "Antibacterial activity against methicillin-resistant Staphylococcus aureus clinical isolate M-14 assessed as inhibition of visible growth incubated for 16 to 18 hrs by CLSI method", "format": "functional", "conditions": "time 16-18 hrs, read-out: MIC100"}, "[30]": {"tested_on": "Staphylococcus aureus", "test": "Antibacterial activity against methicillin-resistant Staphylococcus aureus clinical isolate M-17 assessed as inhibition of visible growth incubated for 16 to 18 hrs by CLSI method", "format": "functional", "conditions": "time 16-18 hrs, read-out: MIC100"}, "[31]": {"test": "Selectivity index, HC50 for hemolytic activity in sheep RBC to MIC for antibacterial activity against Staphylococcus aureus ATCC29213", "format": "toxicity", "conditions": "sheep red blood cells (erythrocytes), read-out: Selectivity Index"}, "[32]": {"tested_on": "Staphylococcus aureus", "test": "Antibacterial activity against methicillin-resistant Staphylococcus aureus clinical isolate M-15 assessed as inhibition of visible growth incubated for 16 to 18 hrs by CLSI method", "format": "functional", "conditions": "time 16-18 hrs, read-out: MIC100"}, "[33]": {"tested_on": "Staphylococcus aureus", "test": "Antibiofilm activity against Staphylococcus aureus assessed as reduction in colony forming unit at 64 ug/ml incubated for 16 to 18 hrs by biofilm disruption assay", "format": "functional", "conditions": "dose 64 µg/ml; time 16-18 hrs"}, "[34]": {"tested_on": "Salmonella enterica", "test": "Antibacterial activity against Salmonella enterica 349812 assessed as inhibition of visible growth incubated for 16 to 18 hrs by CLSI method", "format": "functional", "conditions": "time 16-18 hrs, read-out: MIC100"}, "[35]": {"tested_on": "Staphylococcus aureus", "test": "Antibiofilm activity against methicillin-resistant Staphylococcus aureus clinical isolate 16 assessed as decrease in viable bacteria in biofilm at 2 to 64 ug/ml incubated for 16 to 18 hrs by biofilm disruption assay", "format": "functional, organism-based", "conditions": "dose 2-64 µg/ml, time 16-18 hrs"}, "[36]": {"tested_on": "Staphylococcus aureus", "test": "Antibacterial activity against methicillin-resistant Staphylococcus aureus clinical isolate M-11 assessed as inhibition of visible growth incubated for 16 to 18 hrs by CLSI method", "format": "functional", "conditions": "time 16-18 hrs, read-out: MIC100"}}, "note": "The source made the active and inactive calls. The rule behind the calls is not given here."}
{"smiles": "C=CCc1ccc(OCCC[N+](C)(C)CC(=O)NCCCC)c(-c2ccc(OCCC[N+](C)(C)CC(=O)NCCCC)c(CC=C)c2)c1.[Br-].[Br-]", "values": [{"measurement": "MIC", "setting": "[1]", "value": 4, "unit": "µg/mL"}, {"measurement": "MIC", "setting": "[2]", "value": 1, "unit": "µg/mL"}, {"measurement": "MIC", "setting": "[3]", "value": 0.5, "unit": "µg/mL"}, {"measurement": "Activity", "setting": "[4]", "value": "Non-Toxic"}, {"measurement": "Activity", "setting": "[5]", "value": "Active"}, {"measurement": "Activity", "setting": "[6]", "value": "Active"}, {"measurement": "Activity", "setting": "[7]", "value": "Active"}, {"measurement": "Activity", "setting": "[8]", "value": "Active"}, {"measurement": "fold change (FC)", "setting": "[9]", "value": 128}, {"measurement": "MIC", "setting": "[10]", "value": 3, "unit": "µg/mL"}, {"measurement": "MIC", "setting": "[11]", "value": 3, "unit": "µg/mL"}, {"measurement": "MIC", "setting": "[12]", "value": 2, "unit": "µg/mL"}, {"measurement": "MIC", "setting": "[13]", "value": 1, "unit": "µg/mL"}, {"measurement": "Activity", "setting": "[14]", "value": "Active"}, {"measurement": "MIC", "setting": "[15]", "value": 1, "unit": "µg/mL"}, {"measurement": "Activity", "setting": "[16]", "value": "Dose-Dependent Effect"}, {"measurement": "Activity", "setting": "[17]", "value": "Active"}, {"measurement": "HC50 at 1 h", "setting": "[18]", "value": 789, "unit": "µg/mL"}, {"measurement": "Activity", "setting": "[19]", "value": "Non-Toxic"}, {"measurement": "MIC", "setting": "[20]", "value": 1, "unit": "µg/mL"}, {"measurement": "Activity", "setting": "[21]", "value": "Dose-Dependent Effect"}, {"measurement": "Activity", "setting": "[22]", "value": "Active"}, {"measurement": "MIC", "setting": "[23]", "value": 2, "unit": "µg/mL"}, {"measurement": "Activity", "setting": "[24]", "value": "Active"}, {"measurement": "MIC", "setting": "[25]", "value": 8, "unit": "µg/mL"}, {"measurement": "Activity", "setting": "[26]", "value": "Non-Toxic"}, {"measurement": "Activity", "setting": "[27]", "value": "Non-Toxic"}, {"measurement": "Activity", "setting": "[28]", "value": "Active"}, {"measurement": "MIC", "setting": "[29]", "value": 1, "unit": "µg/mL"}, {"measurement": "MIC", "setting": "[30]", "value": 0.5, "unit": "µg/mL"}, {"measurement": "selectivity ratio", "setting": "[31]", "value": 789}, {"measurement": "MIC", "setting": "[32]", "value": 0.5, "unit": "µg/mL"}, {"measurement": "Activity", "setting": "[33]", "value": 3.8, "unit": "log10CFU/ml"}, {"measurement": "MIC", "setting": "[34]", "value": 8, "unit": "µg/mL"}, {"measurement": "Activity", "setting": "[35]", "value": "Active"}, {"measurement": "MIC", "setting": "[36]", "value": 1, "unit": "µg/mL"}]}
